Patent US11980594B2, “Composition and method for treating a drug-resistant cancer” (NOVELWISE PHARMACEUTICAL CORPORATION, priority 2021, dated 2024)

Columns and labels:
HCT116 cells [1] = experiment: Clonogenic (colony formation) assay, HCT116; type: cell-based; conditions: Homo sapiens, HCT-116, 336 h, 14 days, read-out: IC50 values of TMZ, clonogenic assay
Method: For the anchorage-dependent growth assay, 1000 cells were resuspended in the medium and seeded in 6-well plates. […] After 14 days, the media were removed and the cells were washed and fixed with 4% paraformaldehyde for 30 min, and stained with 0.1% crystal violet for 20 min at 25° C. The intensity of crystal violet was quantified by the absorbance of 570 nm after dissolving the stained cells with dimethyl sulfoxide (DMSO). The results are expressed as the average colony±SE from three independent experiments.

P62 and LC3-II = experiment: Western blot of autophagy markers in CRC cells; type: cell-based, human; conditions: HT29, HCT116 and RKO cells; BMX (5 and 10 μM) with or without 50 μM TMZ; FIG. 18A
Method: Western blot analysis was used to examine the indicated protein expression levels under various concentrations of BMX (0-10 μM), and SAHA, VPA or PCI-34051 in the presence or absence of TMZ (50 μM) or OXP (5 μM) of the tested cell lines. SDS-PAGE and Western blot analysis was performed on lysates prepared as outlined previously. The specific primary antibodies against acetyl-histone H3 (Lys9/Lys14), acetyl-histone H4 (Lys8), P53, acetyl-p53 (Lys382), phospho-p53 (Ser15), P21, P16, MGMT, phosphor-H2AX (S139), E2F1, E2F3, Cleaved Caspase-3, Cleaved Caspase-8, Cleaved Caspase-7, Cleaved Caspase-9, PARP, Bax, Bcl-2, Bid, Bim, Bak, Puma, β-catenin, phospho-β-catenin(Ser/33/37/41), GSK3β, phospho-GSK3β (Ser 9), c-Myc, Cyclin D1, P62, LC3B, CD133, CD44, SOX-2 and HDAC8 were used for detection, and GAPDH, α-tubulin or β-actin was used as the internal control. After incubation with the primary antibodies, and then incubated with horseradish peroxidase (HRP)-conjugated secondary antibodies, the HRP signals were detected with a chemical HRP substrate. Signal of each target protein was visualized by incubation with an enhanced chemiluminescent reagent and exposure to X-ray film.

HCT116 cells [2] = experiment: Annexin V/PI flow cytometric analysis of apoptosis, HCT116; type: cell-based, human; conditions: BMX, 48 hrs
Method: Apoptosis induction in different doses of BMX (0-10 μM) in the presence or absence of TMZ (50 μM) was assayed by the detection of membrane externalization of phosphatidylserine with the with the CF®488A Annexin V and PI Apoptosis Kit (Fremont, Calif., USA) following the manufacturer's instructions. All samples were then immediately analyzed by flow cytometry.

A172-R cells = experiment: Flow cytometric analysis of the DNA cell cycle, A172-R; type: cell-based, human; conditions: 10 μM BMX alone, 48 hrs
Method: (§1) For the DNA cell cycle, following treatment with different doses of BMX (0-10 μM) in the presence or absence of TMZ (50 μM) for 48 hrs, the cells were harvested through trypsinization, washed twice with phosphate-buffered saline, and fixed in methanol. The cells were then washed again, subjected to RNase A at a final concentration of 0.05 mg/mL (Sigma-Aldrich; Merck Millipore, Darmstadt, Germany), and incubated with 10 μg/mL propidium iodide (PI; Sigma-Aldrich; Merck Millipore) at 4° C. for 15 min in the dark. Cell cycle analysis was conducted using a fluorescence-activated cell sorting (FACS) flow cytometer (Attune NxT flow cytometer, Thermo Fisher Scientific).

U87MG-R cells = experiment: Flow cytometric analysis of the DNA cell cycle, U87MG-R; type: cell-based, human; conditions: 10 μM BMX alone, 48 hrs
Method: as §1

β-catenin = experiment: Western blot of β-catenin in GBM-R cells; type: cell-based, human; conditions: U87R and A172R cells; 10 μM BMX with or without 50 μM TMZ; 48 hrs; FIG. 3A
Method: The cells were collected and lysed in RIPA lysis buffer (EMD Millipore Billerica, Mass., USA, 10×RIPA buffer) containing a protease inhibitor. Protein concentration was determined using a protein assay kit (Bio-Rad Laboratories, Hercules, Calif., USA). The SDS loading buffer was mixed with the protein samples. Proteins (20 μg/lane) were separated using 8%-12% SDS-PAGE and transferred to a PVDF membrane, which was blocked with 5% bovine serum albumin at room temperature for 1 hr in tris-buffered saline (TBS)-Tween 20 (0.5%; TBS-T), incubated with primary antibodies overnight at […], and then incubated with horseradish peroxidase (HRP)-conjugated secondary antibodies at room temperature for 1 hr. After washing thoroughly with TBS-T, the HRP signals were detected with a chemical HRP substrate. Signal of each target protein was visualized by incubation with an enhanced chemiluminescent reagent and exposure to X-ray film.

HDAC8 = HDAC8 mRNA (qRT-PCR) and protein (Western blot) expression in GBM and GBM-R cell lines; type: cell-based, human; conditions: four cell lines (U87MG, U87MG-R, A172, A172-R); BMX 0-10 μM; FIGS. 9A and 9B
Method: The ABI Prism® 7700 Sequence Detection System (Applied Biosystems, Foster City, Calif., USA) was used for quantitative analysis of mRNA expression. The cells (2×10^5) were seeded in 6-well plates, and total RNA was extracted using Tissue Total RNA Mini Kit (Geneaid, Taipei, Taiwan). A 10-ng sample of total RNA was transcribed into cDNA by using a High-Capacity cDNA Reverse Transcription Kit (Applied Biosystems). Gene expression was quantified using Fast SYBR Green Master Mix (Applied Biosystems) following the procedures provided by the manufacturer, with 18s as the inner reference. All procedures were performed according to the manufacturer's protocols. The thermocycling conditions were as follows: 50° C. for 2 min, 95° C. for 10 min, and 40 cycles of 95° C. for 15 s and 60° C. for […]. Each sample was analyzed in triplicate. The threshold cycle (Ct) values were calculated using the StepOnePlus (Applied Biosystems) software. The relative expression of each mRNA was calculated using the 2-(ΔCt) method. […]
The cells were collected and lysed in RIPA lysis buffer (EMD Millipore Billerica, Mass., USA, 10×RIPA buffer) containing a protease inhibitor. Protein concentration was determined using a protein assay kit (Bio-Rad Laboratories, Hercules, Calif., USA). […] After washing thoroughly with TBS-T, the HRP signals were detected with a chemical HRP substrate. […]

IC50 (HCT116 cells [1]) | SMILES | expression of P62 and LC3-II (P62 and LC3-II) | early apoptotic cells (HCT116 cells [2]) | cells arrested in G0/G1 phase (A172-R cells) | cells arrested in G0/G1 phase (U87MG-R cells) | protein levels of β-catenin (β-catenin) | HDAC8 mRNA and protein expression (HDAC8)
138 ± 22.7 µM | Cn1nnc2c(C(N)=O)ncn2c1=O [TMZ, Temozolomide, reference compound] | – | – | – | – | – | –
– | COc1ccc(COc2c(/C=C/C(=O)NO)ccc(OC)c2CC=C(C)C)cc1 [BMX, (E)-2-(4-Methoxybenzyloxy)-3-prenyl-4-methoxy-N-hydroxycinamide] | concentration-dependent increase in the expression of P62 and LC3-II | ≤ 49.34% | 70.34% | 77.95% | only slightly reduced these levels | inhibition of HDAC8 mRNA and protein expression
